The text below walks through data of BindingDB's records for doi:10.1021/acs.jmedchem.9b00186 (Bristol-Myers Squibb Research & Development, 2019).

A short description of assay [1]: Antagonist activity at PAR4 in human platelet rich plasma assessed as inhibition of gamma-thrombin-induced platelet aggregation preincubated for 5 mins followed by gamma-thrombin addition and measured in presence of recombinant hirudin.
The nature of assay [2]: Antagonist activity at PAR4 in human washed platelets assessed as inhibition of gamma-thrombin-induced platelet aggregation preincubated for 5 mins followed by gamma-thrombin addition and measured every 50 secs for up to 15 mins starting from 10 secs post gamma-thrombin addition in presence of recombinant hirudin.

SMILES strings stand for the structures.

For the compound `COc1nn2cc(-c3cc4ccccc4o3)nc2s1`, the IC50 in assay [1] was 15000 nM; in assay [2], 240 nM.

Regarding `COc1cc(OCc2ccccc2OCc2ccccc2)c2cc(-c3cn4nc(OC)sc4n3)oc2c1`, the IC50 in assay [1] stood at 2500 nM. Same read-out and setting: then `COc1cc(OCc2cccc(O)c2)c2cc(-c3cn4nc(OC)sc4n3)oc2c1`, with 2700 nM. On the same count and under the same terms, the same measure for `COc1cc(OCc2cccc(C#N)c2)c2cc(-c3cn4nc(OC)sc4n3)oc2c1`: 820 nM; for `COc1cc(OCCOCc2ccccc2)c2cc(-c3cn4nc(OC)sc4n3)oc2c1`: 500 nM; for `COc1cc(OCc2ccc(Cl)cc2)c2cc(-c3cn4nc(OC)sc4n3)oc2c1`: greater than 1000 nM. Still for that read-out and setting: then `COc1cc(OCc2cccc(Cl)c2)c2cc(-c3cn4nc(OC)sc4n3)oc2c1`, with 680 nM. Consider `CC(C)Oc1nn2cc(-c3cc4ccccc4o3)nc2s1`, for which, in assay [2], the IC50 is greater than 30000 nM.

`CS(=O)(=O)c1nn2cc(-c3cc4ccccc4o3)nc2s1`: the IC50 in assay [2] is greater than 30000 nM. Turning to `COc1cc(OCc2ccc(OCc3ccccc3)cc2)c2cc(-c3cn4nc(OC)sc4n3)oc2c1`, the IC50 in assay [1] amounted to 550 nM. Same read-out and setting: then `COc1cc(OCCc2ccccc2)c2cc(-c3cn4nc(OC)sc4n3)oc2c1`, with 780 nM.

With `COc1cc(OCc2ccccc2C)c2cc(-c3cn4nc(OC)sc4n3)oc2c1`, the half-inhibitory concentration (IC50) in assay [1] was 3600 nM.

`COc1cc(OCc2ccccc2Cl)c2cc(-c3cn4nc(OC)sc4n3)oc2c1`: the 50% inhibitory concentration (IC50) in assay [1] is greater than 3000 nM. Same read-out and setting: the same measure for `COc1cc(OCc2cccc(C(F)(F)F)c2)c2cc(-c3cn4nc(OC)sc4n3)oc2c1`: 440 nM.

For the compound `COc1cc(OCc2ccc(C(F)(F)F)cc2)c2cc(-c3cn4nc(OC)sc4n3)oc2c1`, the IC50 in assay [1] came to 1800 nM.

For `COc1ccc(COc2cc(OC)cc3oc(-c4cn5nc(OC)sc5n4)cc23)cc1`, in assay [1], the IC50 was greater than 3000 nM. Same read-out and setting: then `COc1cc(OCc2cccc(Oc3ccccc3)c2)c2cc(-c3cn4nc(OC)sc4n3)oc2c1`, with 390 nM; and `COc1cc(OCc2cccc(CCc3ccccc3)c2)c2cc(-c3cn4nc(OC)sc4n3)oc2c1`, with 1200 nM.

For the compound `COc1cc(OCc2cccc(COc3ccccc3)c2)c2cc(-c3cn4nc(OC)sc4n3)oc2c1`, the IC50 in assay [1] came to 600 nM.

On to `COc1cc(OCc2cccc(CO)c2)c2cc(-c3cn4nc(OC)sc4n3)oc2c1`, for which, in assay [1], the IC50 was greater than 1000 nM. For `COc1cccc(COc2cc(OC)cc3oc(-c4cn5nc(OC)sc5n4)cc23)c1`, the 50% inhibitory concentration (IC50) in assay [1] was greater than 1000 nM. The same measure, in the same setting: then `COc1cc(OCc2ccccc2OC)c2cc(-c3cn4nc(OC)sc4n3)oc2c1`, with greater than 1000 nM; and `COc1cc(OCCOc2ccccc2)c2cc(-c3cn4nc(OC)sc4n3)oc2c1`, with 480 nM.

As for `COc1cc(OCc2cccc(Sc3ccccc3)c2)c2cc(-c3cn4nc(OC)sc4n3)oc2c1`, the IC50 in assay [1] was 410 nM. Consider `CCOc1nn2cc(-c3cc4ccccc4o3)nc2s1`, for which the IC50 in assay [2] stood at 2100 nM. Take `COc1cc(OCc2ccccc2C(F)(F)F)c2cc(-c3cn4nc(OC)sc4n3)oc2c1`: in assay [1], the IC50 is greater than 1000 nM. For `CSc1nn2cc(-c3cc4ccccc4o3)nc2s1` [US9862730, Example 1], the IC50 in assay [2] was 270 nM.

With `COc1nn2cc(-c3cc4cccc(OC)c4o3)nc2s1` [US9862730, Example 9], the IC50 in assay [1] was 3500 nM; in assay [2], 240 nM. On to `COc1nn2cc(-c3cc4ccc(OC)c(OC)c4o3)nc2s1` [US9862730, Example 10], for which the IC50 in assay [1] and in assay [2] was greater than 30000 nM throughout. For `COc1nn2cc(-c3cc4c(OC)cccc4o3)nc2s1` [US9862730, Example 11], the IC50 worked out at 1300 nM in assay [1] and 350 nM in assay [2]. With `Cc1nn2cc(-c3cc4ccccc4o3)nc2s1` [US9862730, Example 41], in assay [2], the IC50 is greater than 30000 nM.

Turning to `CCc1nn2cc(-c3cc4ccccc4o3)nc2s1` [US9862730, Example 47], the IC50 in assay [2] was 2400 nM.

With `c1ccc2oc(-c3cn4nc(C5CC5)sc4n3)cc2c1` [US9862730, Example 63], in assay [2], the 50% inhibitory concentration (IC50) was greater than 30000 nM. On the same count and under the same terms, then `CNc1nn2cc(-c3cc4ccccc4o3)nc2s1` [US9862730, Example 69], with greater than 30000 nM. For the compound `COc1ccc2cc(-c3cn4nc(OC)sc4n3)oc2c1` [US9862730, Example 71], the IC50 was determined as 480 nM in assay [1] and 120 nM in assay [2].

On to `COc1cc(OC)c2cc(-c3cn4nc(OC)sc4n3)oc2c1` [US9862730, Example 73], for which the IC50 was 530 nM in assay [1] and 74 nM in assay [2].

As to `COc1ccc2oc(-c3cn4nc(OC)sc4n3)cc2c1` [US9862730, Example 93], the IC50 in assay [1] and in assay [2] was greater than 30000 nM each time. Take `COc1nn2cc(-c3cc4c(OC)ccc(OC)c4o3)nc2s1` [US9862730, Example 103]: the IC50 in assay [1] was 10000 nM; in assay [2] it was 2100 nM. On the same counts, the results for `COc1nn2cc(-c3cc4ccc(OCc5ccccc5)cc4o3)nc2s1` [US9862730, Example 104] are greater than 30000 nM and 1800 nM.

With `COc1nn2cc(-c3cc4c(OCc5ccccc5)cccc4o3)nc2s1` [US9862730, Example 210], the IC50 in assay [1] was 4100 nM; in assay [2], 3100 nM.
